Experimental findings from patent US6699686B1, “Modified nuclear glucocorticoid receptor, fusion protein, and DNA fragments coding for said receptor and said fusion protein” (Association pour le Development de la Recherche en …, priority 1996, dated 2004) are described below.

This experiment deals with T1, wild-type hGR (Homo sapiens, UniProt P04150).
T1 construct: expressed in transfected cells
T1 sequence (P04150 1-777): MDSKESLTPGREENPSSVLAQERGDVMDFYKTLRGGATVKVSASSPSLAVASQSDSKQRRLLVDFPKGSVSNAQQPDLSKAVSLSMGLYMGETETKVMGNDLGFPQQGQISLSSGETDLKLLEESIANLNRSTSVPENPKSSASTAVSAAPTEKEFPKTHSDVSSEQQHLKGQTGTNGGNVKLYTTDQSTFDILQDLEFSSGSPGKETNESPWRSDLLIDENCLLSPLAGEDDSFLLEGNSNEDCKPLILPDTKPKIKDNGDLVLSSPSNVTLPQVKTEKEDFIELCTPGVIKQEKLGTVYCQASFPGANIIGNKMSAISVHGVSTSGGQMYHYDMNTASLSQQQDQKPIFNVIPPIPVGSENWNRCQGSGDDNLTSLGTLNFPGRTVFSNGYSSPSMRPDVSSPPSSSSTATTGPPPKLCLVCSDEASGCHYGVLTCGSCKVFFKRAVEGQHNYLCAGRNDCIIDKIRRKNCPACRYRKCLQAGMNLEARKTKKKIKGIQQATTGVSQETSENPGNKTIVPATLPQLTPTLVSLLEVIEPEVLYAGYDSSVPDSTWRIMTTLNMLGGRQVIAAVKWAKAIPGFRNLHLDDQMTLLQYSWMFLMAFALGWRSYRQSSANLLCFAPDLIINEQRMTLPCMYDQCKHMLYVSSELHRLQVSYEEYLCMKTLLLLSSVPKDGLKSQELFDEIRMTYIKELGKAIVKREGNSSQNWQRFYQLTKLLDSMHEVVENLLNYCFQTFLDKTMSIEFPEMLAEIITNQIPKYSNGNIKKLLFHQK
The experiment can be described thus: Transcriptional activation of pTAT-tk-Luc luciferase reporter in transiently transfected CV-1 cells. It counts as cell-based. Further details: Luciferase activity % Wild type: concentration or dose not given beside the values. Particulars: for Luciferase activity % Wild type: 24 h ligand, mean of three independent assays; for EC50: ligand concentration giving 50% of maximum transcriptional response. On the procedure:
The receptors were transiently expressed in GR-free CV-1 cells, conjointly with a luciferase reporter gene under the control of the tyrosine aminotransferase promoter (pTAT-tk-Luc).
After transfection, the cells were incubated for 24 hours with increasing concentrations of Dex, and they were then subjected to an assay of the β-galactosidase and luciferase activities, as described in “Materials and Methods”. The luciferase activity was normalized with the β-galactosidase activity, and the value obtained in the absence of ligand was subtracted for each point. The results were expressed as a percentage of the maximum luciferase activity obtained for each receptor. Each point is the mean±standard deviation of the mean of four separate determinations carried out in duplicate. […] The [^3H] steroid attached was measured after treatment with dextran-coated charcoal. The results presented are those for a single assay carried out in duplicate and representative of three separate assays.
Co-transfections were carried out and dose-response curves were constructed as described in FIG. 2. […] The assays of luciferase and β-galactosidase activity were carried out as described in “Materials and Methods”. The mean values of three independent assays are given in this table. nm=not measurable.
The CV-1 and Cos-7 cells were cultured in Dulbeco's modified Eagle's medium (DMEM) containing 10% (v/v) of fetal calf serum (FCS) (Gibco, Grand Island, N.Y.), in a humidified atmosphere containing 5% CO2. The HeLa cells were cultured under the same conditions. Transient transfections were carried out in 6-well multiplates according to the calcium phosphate procedure already described (42). A reference recombinant plasmid, pCMV-βgal, expressing bacterial β-galactosidase, was transfected conjointly with the receptor expression vector and the corresponding reporter gene so as to correct possible variations in he transfection efficiency. The precipitate was removed by washing after 24 hours, and the cells were kept in DMEX without FCS but containing hormone. After another 24 hours, the cells were rinsed and lysed for 15 minutes with 0.3 ml of lysis buffer [25 mM Tris.phosphate, pH 7.8, 8 mM […], 1% Triton X100, 10% glycerol (48)]. The corresponding luciferase activity as determined on an aliquot fraction (0.1 ml), by evaluation of the luminescence peak (for an integration time of 15 seconds), after injection of 0.1 ml of 1 mM luciferin in an LKB luminometer. The β-galactosidase was determined by the method modified by Bocquel et al. (49), for controlling the efficiency of each transfection.
The reporter gene pTAT-tk-Luc was provided by D. Gagne and was constructed as follows: an intermediate plasmid pTAT was first generated by insertion of the 966 bp EcoRI-BamHI segment obtained from pKT531 [offered freely by T. Grande (50)] into the corresponding sites of the vector pUC19 (Pharmacia). The fragment containing the sequence coding for the firefly luciferase and the thymidine kinase (tk) minimal promoter obtained from the Herpes simplex virus was isolated in the form of a BamHI fragment from pvit-tk-Luc (51) and inserted, downstream of the TAT promoter, into the corresponding site of pTAT. The reporter plasmid pGRE-tk-Luc was constructed by ligation of the fragment of HindIII-BglII digestion of pGRE-tk-CAT (52), which contains a synthetic GRE (AGAACAcagTGTTCT) upstream of the tk minimal promoter, into the HindIII-BglII sites of pLuc (53). The reporter gene p(17M)5-βGlob-Luc has been previously described (54). The reporter plasmid p(17M)5-tata-Luc was constructed from the plasmid p(17M)5-tata-CAT (55) by digestion with XhoI-BamHI and isolation of the fragment containing (17M5)-tata. This fragment was then inserted into the vector pGL2 (Promega) digested with the same restriction enzymes.
(A reporter such as luciferase makes a cellular process visible.)

A word on the EC50: it is the concentration giving half of the maximal effect. Regarding `C[C@]12C[C@H](O)[C@H]3[C@@H](CCC4=CC(=O)CC[C@@]43C)[C@@H]1CC[C@@H]2C(=O)CO` [Corticosterone, corticosterone], the “stimulation of the luciferase reporter with the wild-type GR” value (shortened to “stimulation of the luciferase reporter”) is “as effective as Dex”, the “Luciferase activity % Wild type” value was 100% and the 50% effective concentration (EC50) amounted to 70 nM.

`C[C@]12CCC(=O)C=C1CC[C@@H]1[C@@H]2[C@@H](O)C[C@@]2(C)[C@H]1CC[C@]2(O)C(=O)CO` [Cortisol, cortisol]: the “stimulation of the luciferase reporter” value was “as effective as Dex” and the “Luciferase activity % Wild type” value is given as 110%.

On to `C[C@@H]1C[C@H]2[C@@H]3CCC4=CC(=O)C=C[C@]4(C)[C@@]3(F)[C@@H](O)C[C@]2(C)[C@@]1(O)C(=O)CO` [Dexamethasone, dexamethasone], for which the “Luciferase activity % Wild type” value was 100%.

For the compound `C[C@]12CCC(=O)C=C1CC[C@@H]1[C@@H]2[C@@H](O)C[C@]2(C=O)[C@@H](C(=O)CO)CC[C@@H]12` [Aldosterone, aldosterone], the “stimulation of the luciferase reporter” value is recorded as “as effective as Dex”, the “Luciferase activity % Wild type” value was determined as 90% and the EC50 was determined as 50 nM.
